Reference: US10206937B2, “Boronic acid derivatives and therapeutic uses thereof” (Qpex Biopharma, Inc., priority 2014, dated 2019)

Test system: strains of Enterobacteriaceae producing various carbapenemases (class A, D and B; 104 strains)
Test: Antibiotics potentiation by Compound 27 (MIC; meropenem, doripenem, ertapenem, cefepime)
Type: cell-based
Settings: + 27 = with Compound 27 at fixed 4 μg/ml

C[C@@H](O)[C@H]1C(=O)N2C(C(=O)O)=C(S[C@@H]3CN[C@H](C(=O)N(C)C)C3)[C@H](C)[C@H]12 [M]
MIC (strain CF1012 Citrobacter freundii (KPC-2)): Y (MIC of 1 μg/mL to 10 μg/mL)
MIC (strain CF1021 Citrobacter freundii (CMY-type; VIM-1)): Y (MIC of 1 μg/mL to 10 μg/mL)
MIC (strain CF1022 Citrobacter freundii (SHV-12(2be), TEM-OSBL(2b); IMP-8)): Y (MIC of 1 μg/mL to 10 μg/mL)
MIC (strain CF1023 Citrobacter freundii (SHV-12(2be), TEM-OSBL(2b); CTX-M-3; CMY-34; NDM-1)): Z (MIC of greater than 10 μg/mL)
MIC (strain CL1080 Enterobacter cloacae (IMP-1)): Y (MIC of 1 μg/mL to 10 μg/mL)
MIC (strain EA1019 Enterobacter aerogenes (SHV-5, VIM-1)): Z (MIC of greater than 10 μg/mL)
MIC (strain EC1007 Escherichia coli (KPC-3)): X (MIC of less than 1 μg/mL)
MIC (strain EC1061 Escherichia coli (NDM-1, CMY-6)): Z (MIC of greater than 10 μg/mL)
MIC (strain EC1062 Escherichia coli (OXA-48, CTX-M-15)): X (MIC of less than 1 μg/mL)
MIC (strain EC1064 Escherichia coli (NDM-1, CMY-6, CTX-M-15)): Z (MIC of greater than 10 μg/mL)
MIC (strain EC1065 Escherichia coli (IMP-1)): Y (MIC of 1 μg/mL to 10 μg/mL)
MIC (strain EC1068 Escherichia coli (VIM-1)): Z (MIC of greater than 10 μg/mL)
MIC (strain EC1069 Escherichia coli (CTX-M-27; NDM-1)): Z (MIC of greater than 10 μg/mL)
MIC (strain EC1070 Escherichia coli (TEM-OSBL(2b); CMY-42; NDM-5)): Z (MIC of greater than 10 μg/mL)
MIC (strain EC1072 Escherichia coli (CTX-M-3; NDM-1)): Z (MIC of greater than 10 μg/mL)
MIC (strain ECL1004 Enterobacter cloacae (NMC-A)): Y (MIC of 1 μg/mL to 10 μg/mL)
MIC (strain ECL1026 Enterobacter cloacae (KPC-2, TEM-1)): Y (MIC of 1 μg/mL to 10 μg/mL)
MIC (strain ECL1036 Enterobacter cloacae (KPC-3, TEM-1)): Y (MIC of 1 μg/mL to 10 μg/mL)
MIC (strain ECL1045 Enterobacter cloacae (VIM-1)): Y (MIC of 1 μg/mL to 10 μg/mL)
MIC (strain ECL1055 Enterobacter cloacae (KPC-3, TEM)): Y (MIC of 1 μg/mL to 10 μg/mL)
MIC (strain ECL1057 Enterobacter cloacae (NDM-1, TEM-1, CTX-M-15)): Z (MIC of greater than 10 μg/mL)
MIC (strain ECL1058 Enterobacter cloacae (KPC-3, SHV-11, TEM-1)): Z (MIC of greater than 10 μg/mL)
MIC (strain ECL1059 Enterobacter cloacae (KPC-3, SHV-12, TEM-1)): Y (MIC of 1 μg/mL to 10 μg/mL)
MIC (strain ECL1061 Enterobacter cloacae (KPC-3, Hyper AmpC expression)): Z (MIC of greater than 10 μg/mL)
MIC (strain ECL1082 Enterobacter cloacae (VIM-1)): Z (MIC of greater than 10 μg/mL)
MIC (strain ECL1084 Enterobacter cloacae (CTX-M-15; ACT-16; NDM-1)): Z (MIC of greater than 10 μg/mL)
MIC (strain ECL1085 Enterobacter cloacae (SHV-31(2be), TEM-1(2b); CTX-M-15; NDM-1)): Z (MIC of greater than 10 μg/mL)
MIC (strain ECL1086 Enterobacter cloacae (VIM-31, OXA-48(c))): Y (MIC of 1 μg/mL to 10 μg/mL)
MIC (strain ECL1087 Enterobacter cloacae (VIM-1)): Z (MIC of greater than 10 μg/mL)
MIC (strain ECL1088 Enterobacter cloacae (TEM-1(2b); CTX-M-14; ACT-type; VIM-1)): Z (MIC of greater than 10 μg/mL)
MIC (strain ECL1089 Enterobacter cloacae (ACT-type; IMP-1)): Z (MIC of greater than 10 μg/mL)
MIC (strain ECL1090 Enterobacter cloacae (TEM-1(2b); CTX-M-22; ACT-type; IMP-8)): Y (MIC of 1 μg/mL to 10 μg/mL)
MIC (strain ECL1091 Enterobacter cloacae (VIM-1)): Z (MIC of greater than 10 μg/mL)
MIC (strain ECL1092 Enterobacter cloacae (TEM-OSBL(2b); ACT-32; VIM-1)): Y (MIC of 1 μg/mL to 10 μg/mL)
MIC (strain ECL1093 Enterobacter cloacae (TEM-OSBL(2b); ACT-32; VIM-1)): Y (MIC of 1 μg/mL to 10 μg/mL)
MIC (strain ECL1094 Enterobacter cloacae (VIM-1)): Z (MIC of greater than 10 μg/mL)
MIC (strain ECL1096 Enterobacter cloacae (CMY-4, VIM-4, OXA-48(c))): Y (MIC of 1 μg/mL to 10 μg/mL)
MIC (strain ECL1097 Enterobacter cloacae (SHV-31(2be), TEM-OSBL(2b); CTX-M-15; ACT-31; NDM-1)): Z (MIC of greater than 10 μg/mL)
MIC (strain ECL1098 Enterobacter cloacae (TEM-OSBL(2b); DHA-1; ACT-16; NDM-1)): Z (MIC of greater than 10 μg/mL)
MIC (strain KP1001 Klebsiella pneumoniae (KPC TEM SHV)): Z (MIC of greater than 10 μg/mL)
MIC (strain KP1002 Klebsiella pneumoniae (KPC TEM SHV)): Y (MIC of 1 μg/mL to 10 μg/mL)
MIC (strain KP1003 Klebsiella pneumoniae (KPC TEM SHV)): Y (MIC of 1 μg/mL to 10 μg/mL)
MIC (strain KP1004 Klebsiella pneumoniae (KPC-2, TEM-1, SHV-11)): Z (MIC of greater than 10 μg/mL)
MIC (strain KP1008 Klebsiella pneumoniae (KPC-2)): Y (MIC of 1 μg/mL to 10 μg/mL)
MIC (strain KP1014 Klebsiella pneumoniae (VIM-1, TEM, SHV)): Y (MIC of 1 μg/mL to 10 μg/mL)
MIC (strain KP1054 Klebsiella pneumoniae (VIM-1, SHV-11)): Z (MIC of greater than 10 μg/mL)
MIC (strain KP1059 Klebsiella pneumoniae (VIM-1, SHV-11)): Z (MIC of greater than 10 μg/mL)
MIC (strain KP1061 Klebsiella pneumoniae (KPC-3, SHV-11, TEM-1)): Z (MIC of greater than 10 μg/mL)
MIC (strain KP1064 Klebsiella pneumoniae (KPC-2, SHV-11, TEM-1)): Z (MIC of greater than 10 μg/mL)
MIC (strain KP1065 Klebsiella pneumoniae (VIM-1, SHV-11)): Y (MIC of 1 μg/mL to 10 μg/mL)
MIC (strain KP1070 Klebsiella pneumoniae (KPC-2, SHV-11, TEM-1)): Z (MIC of greater than 10 μg/mL)
MIC (strain KP1074 Klebsiella pneumoniae (KPC-3, SHV-11, TEM)): Z (MIC of greater than 10 μg/mL)
